For 16 compounds, IC50 and inhibition results are on record in ChEMBL document CHEMBL1156722, “A novel 5-[1,3,4-oxadiazol-2-yl]-N-aryl-4,6-pyrimidine diamine having dual EGFR/HER2 kinase activity: design, synthesis, and biological activity” (Bioorg Med Chem Lett, 2008).

Assay [1] has as its target T1, Cyclin-dependent kinase 1 (Homo sapiens, UniProt P06493). Description: Inhibition of CDK1.
Target sequence in this assay (P06493 whole entry): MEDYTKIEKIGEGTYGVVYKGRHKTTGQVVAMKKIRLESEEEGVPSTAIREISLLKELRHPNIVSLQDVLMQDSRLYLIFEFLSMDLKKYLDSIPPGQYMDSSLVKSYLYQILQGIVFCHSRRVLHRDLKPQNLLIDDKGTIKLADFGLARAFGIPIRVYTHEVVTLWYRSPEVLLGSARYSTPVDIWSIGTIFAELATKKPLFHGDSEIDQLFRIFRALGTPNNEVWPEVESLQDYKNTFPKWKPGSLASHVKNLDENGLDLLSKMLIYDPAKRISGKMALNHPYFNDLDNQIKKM
Assay [2] addresses Receptor tyrosine-protein kinase erbB-2 (Homo sapiens, UniProt P04626). In words: Inhibition of HER2.
For assay [3], the target named is T2, Aurora kinase A (Homo sapiens, UniProt O14965).
T2 sequence (O14965 whole entry): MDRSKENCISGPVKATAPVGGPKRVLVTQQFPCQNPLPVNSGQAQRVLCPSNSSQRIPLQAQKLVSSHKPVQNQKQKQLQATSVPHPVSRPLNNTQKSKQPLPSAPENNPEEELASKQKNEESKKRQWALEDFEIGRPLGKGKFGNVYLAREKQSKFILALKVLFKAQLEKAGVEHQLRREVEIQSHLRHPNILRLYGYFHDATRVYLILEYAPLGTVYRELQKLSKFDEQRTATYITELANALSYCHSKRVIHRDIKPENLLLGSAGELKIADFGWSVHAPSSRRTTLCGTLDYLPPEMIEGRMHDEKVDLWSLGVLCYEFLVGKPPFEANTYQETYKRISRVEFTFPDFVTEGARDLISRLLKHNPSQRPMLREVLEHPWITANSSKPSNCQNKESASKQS
In words: Inhibition of Aurora A.

Assay [4] concerns the target T3, Vascular endothelial growth factor receptor 2 (Homo sapiens, UniProt P35968). In words: Inhibition of VEGFR2.
For assay [5], the target named is T3, Vascular endothelial growth factor receptor 2. Description: Inhibition of VEGFR2 at 100 uM.
In assay [6] the target is T1, Cyclin-dependent kinase 1. Description: Inhibition of CDK1 at 100 uM.
Target sequence in this assay (P06493 whole entry, looked up): as the sequence (P06493 whole entry) above
Assay [7] addresses T4, Aurora kinase A (Homo sapiens) (UniProt O14965).
T4 sequence (whole entry): T2 sequence (O14965 whole entry)
In words: Inhibition of Aurora A at 100 uM.

Assay [8] relates to BT-474. In words: Cytotoxicity against human HER2-dependent BT474 cells. It counts as functional, cell-based.
The test system of assay [9] is HeLa. In words: Cytotoxicity against human non-HER2-dependent HeLa cells. It counts as functional, cell-based.
Assay [10] has as its system NCI-N87. Description: Cytotoxicity against human HER2-dependent N87 cells. It counts as functional, cell-based.
The target in assay [11] is Epidermal growth factor receptor (Homo sapiens, UniProt P00533).
The subject of assay [12] is SK-BR-3. Description: Cytotoxicity against human HER2-dependent SKBR3 cells. Format: functional, cell-based.

A value given as a limit tells only on which side of the number the result lay.

Receptor tyrosine-protein kinase erbB-2, sequence (P04626 whole entry): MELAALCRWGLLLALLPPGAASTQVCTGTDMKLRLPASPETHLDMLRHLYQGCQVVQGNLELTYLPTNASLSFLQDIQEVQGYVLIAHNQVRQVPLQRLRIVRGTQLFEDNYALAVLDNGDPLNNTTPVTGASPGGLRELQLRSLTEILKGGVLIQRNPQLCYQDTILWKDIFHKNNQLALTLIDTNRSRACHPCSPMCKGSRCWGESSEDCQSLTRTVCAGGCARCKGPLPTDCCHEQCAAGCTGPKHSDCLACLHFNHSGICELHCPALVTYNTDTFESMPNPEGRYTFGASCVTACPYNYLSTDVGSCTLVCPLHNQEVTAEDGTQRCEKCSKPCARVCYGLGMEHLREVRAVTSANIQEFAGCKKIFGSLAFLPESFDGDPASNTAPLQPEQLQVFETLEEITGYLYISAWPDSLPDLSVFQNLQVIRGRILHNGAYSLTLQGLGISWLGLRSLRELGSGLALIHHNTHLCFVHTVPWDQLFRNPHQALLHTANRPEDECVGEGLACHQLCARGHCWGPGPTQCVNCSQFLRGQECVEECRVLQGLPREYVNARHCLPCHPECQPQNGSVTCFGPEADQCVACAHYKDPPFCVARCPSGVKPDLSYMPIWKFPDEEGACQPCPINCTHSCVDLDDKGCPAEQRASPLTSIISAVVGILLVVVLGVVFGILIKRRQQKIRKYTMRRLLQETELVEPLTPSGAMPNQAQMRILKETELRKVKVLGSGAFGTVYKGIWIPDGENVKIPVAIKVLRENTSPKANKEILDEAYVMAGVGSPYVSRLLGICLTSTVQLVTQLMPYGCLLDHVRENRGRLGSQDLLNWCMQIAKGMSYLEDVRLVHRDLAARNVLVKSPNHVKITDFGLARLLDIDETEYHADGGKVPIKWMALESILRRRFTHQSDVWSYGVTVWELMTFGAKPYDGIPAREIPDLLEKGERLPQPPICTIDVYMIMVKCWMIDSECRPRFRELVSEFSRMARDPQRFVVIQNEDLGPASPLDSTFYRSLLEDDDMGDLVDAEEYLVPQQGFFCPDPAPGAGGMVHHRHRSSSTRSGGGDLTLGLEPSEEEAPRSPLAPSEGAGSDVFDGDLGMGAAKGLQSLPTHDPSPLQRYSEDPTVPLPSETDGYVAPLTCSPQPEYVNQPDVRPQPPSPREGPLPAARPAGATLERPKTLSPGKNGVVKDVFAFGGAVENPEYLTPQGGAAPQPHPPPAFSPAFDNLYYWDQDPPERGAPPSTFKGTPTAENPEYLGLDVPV
Epidermal growth factor receptor, sequence (P00533 whole entry): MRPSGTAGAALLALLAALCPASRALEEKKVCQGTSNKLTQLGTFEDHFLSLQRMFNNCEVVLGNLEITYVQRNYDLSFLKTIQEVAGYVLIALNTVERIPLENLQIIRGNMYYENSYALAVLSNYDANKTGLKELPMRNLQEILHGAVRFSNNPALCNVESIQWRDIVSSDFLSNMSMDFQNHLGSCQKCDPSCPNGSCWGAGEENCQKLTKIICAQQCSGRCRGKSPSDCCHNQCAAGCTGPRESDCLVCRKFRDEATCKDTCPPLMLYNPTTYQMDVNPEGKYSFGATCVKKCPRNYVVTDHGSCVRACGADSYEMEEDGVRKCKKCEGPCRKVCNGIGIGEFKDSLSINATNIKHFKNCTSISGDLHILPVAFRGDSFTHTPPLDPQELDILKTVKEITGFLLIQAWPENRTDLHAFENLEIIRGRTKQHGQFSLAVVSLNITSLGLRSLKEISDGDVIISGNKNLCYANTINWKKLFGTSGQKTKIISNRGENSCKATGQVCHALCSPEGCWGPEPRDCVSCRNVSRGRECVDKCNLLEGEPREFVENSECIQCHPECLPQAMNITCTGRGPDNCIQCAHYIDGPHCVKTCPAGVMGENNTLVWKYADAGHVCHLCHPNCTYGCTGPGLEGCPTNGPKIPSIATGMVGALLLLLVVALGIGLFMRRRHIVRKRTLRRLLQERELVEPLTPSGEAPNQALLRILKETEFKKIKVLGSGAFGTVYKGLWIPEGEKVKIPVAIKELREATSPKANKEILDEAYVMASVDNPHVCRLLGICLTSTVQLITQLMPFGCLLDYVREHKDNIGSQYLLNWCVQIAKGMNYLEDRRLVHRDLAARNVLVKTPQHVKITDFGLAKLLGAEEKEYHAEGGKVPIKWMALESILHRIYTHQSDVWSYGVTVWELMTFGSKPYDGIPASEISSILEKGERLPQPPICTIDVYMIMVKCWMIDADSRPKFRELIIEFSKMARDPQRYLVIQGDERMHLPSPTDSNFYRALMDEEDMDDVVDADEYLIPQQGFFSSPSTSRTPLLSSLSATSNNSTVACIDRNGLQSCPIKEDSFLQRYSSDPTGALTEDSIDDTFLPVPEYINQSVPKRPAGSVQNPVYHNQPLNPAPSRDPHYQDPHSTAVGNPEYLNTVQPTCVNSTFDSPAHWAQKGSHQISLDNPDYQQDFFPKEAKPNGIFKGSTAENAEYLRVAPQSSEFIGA
T3 sequence (P35968 whole entry): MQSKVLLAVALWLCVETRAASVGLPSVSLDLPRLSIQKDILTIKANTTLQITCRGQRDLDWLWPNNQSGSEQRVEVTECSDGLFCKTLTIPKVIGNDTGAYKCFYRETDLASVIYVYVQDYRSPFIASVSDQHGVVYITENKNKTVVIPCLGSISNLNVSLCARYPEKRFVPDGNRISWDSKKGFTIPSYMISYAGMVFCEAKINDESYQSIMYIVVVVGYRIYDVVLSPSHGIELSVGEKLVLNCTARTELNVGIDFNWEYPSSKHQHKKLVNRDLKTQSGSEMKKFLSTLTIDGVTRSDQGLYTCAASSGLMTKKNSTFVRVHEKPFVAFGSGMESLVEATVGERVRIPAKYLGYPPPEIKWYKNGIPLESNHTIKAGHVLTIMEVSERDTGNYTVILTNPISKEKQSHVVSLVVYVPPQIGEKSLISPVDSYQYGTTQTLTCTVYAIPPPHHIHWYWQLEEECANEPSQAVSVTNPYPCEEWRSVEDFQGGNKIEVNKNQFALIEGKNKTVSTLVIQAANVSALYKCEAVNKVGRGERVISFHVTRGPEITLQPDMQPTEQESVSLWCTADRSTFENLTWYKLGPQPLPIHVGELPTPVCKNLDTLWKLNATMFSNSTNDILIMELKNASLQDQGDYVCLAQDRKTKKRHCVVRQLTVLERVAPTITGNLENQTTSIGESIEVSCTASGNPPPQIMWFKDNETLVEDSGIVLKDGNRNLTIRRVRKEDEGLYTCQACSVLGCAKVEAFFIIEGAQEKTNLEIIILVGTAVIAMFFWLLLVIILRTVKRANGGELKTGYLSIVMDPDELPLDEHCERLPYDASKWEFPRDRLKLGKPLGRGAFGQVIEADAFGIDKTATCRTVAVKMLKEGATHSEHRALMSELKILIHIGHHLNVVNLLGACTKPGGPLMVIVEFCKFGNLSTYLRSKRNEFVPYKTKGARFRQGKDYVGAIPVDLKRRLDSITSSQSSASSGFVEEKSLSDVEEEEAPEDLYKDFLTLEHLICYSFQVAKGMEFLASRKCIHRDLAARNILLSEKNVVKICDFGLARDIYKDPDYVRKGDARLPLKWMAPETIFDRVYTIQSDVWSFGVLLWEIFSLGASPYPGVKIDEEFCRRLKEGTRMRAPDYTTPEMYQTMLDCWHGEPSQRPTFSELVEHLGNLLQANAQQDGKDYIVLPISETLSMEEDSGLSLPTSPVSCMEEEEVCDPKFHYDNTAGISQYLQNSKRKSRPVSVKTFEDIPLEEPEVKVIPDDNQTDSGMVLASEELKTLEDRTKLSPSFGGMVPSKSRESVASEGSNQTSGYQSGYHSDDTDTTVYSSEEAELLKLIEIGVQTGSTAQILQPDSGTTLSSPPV

With `COc1ccc(CCNC(=O)c2c(N)ncnc2Nc2ccc(OCc3ccccc3)c(Cl)c2)cc1`, the IC50 in [1], in assay [2], in assay [3] and in assay [4] was greater than 100 µM in each case.
On to `NNC(=O)c1c(N)ncnc1Nc1ccc(OCc2ccccc2)c(Cl)c1`, for which the IC50 was greater than 100 µM in [1], 0.146 µM in [2], greater than 10 µM in assay [3] and greater than 10 µM in [4].
With `Nc1ncnc(Nc2ccc(OCc3ccccc3)c(Cl)c2)c1C=O`, the inhibition in assay [5] is less than 10%; in assay [6] it was less than 10%; in [7], 30%.
Consider `Nc1ncnc(Nc2ccc(OCc3ccccc3)c(Cl)c2)c1C(=O)O`, for which the inhibition in assay [5] was 30%; in [6] it was less than 10%; in [7], 73%.
Turning to `Nc1ncnc(Nc2ccc(OCc3ccccc3)c(Cl)c2)c1-c1nnc(CCN2CCOCC2)o1`, the IC50 in [1] was greater than 100 µM; in assay [8], 0.312 µM; in assay [2], 0.08 µM; in assay [9], greater than 100 µM; in [3], greater than 100 µM; in assay [10], 0.411 µM. For the same compound, the IC50 in [4] is greater than 100 µM; in assay [11], 0.03 µM; in assay [12], 0.325 µM.
Regarding `COc1ccc(NC(=O)c2c(N)ncnc2Nc2ccc(OCc3ccccc3)c(Cl)c2)cc1`, the half-maximal inhibitory concentration (IC50) in assay [1] is greater than 100 µM; in assay [2], greater than 100 µM; in [3] it was greater than 10 µM; in [4], greater than 100 µM.
As for `N#Cc1c(N)ncnc1Nc1ccc(OCc2ccccc2)c(Cl)c1`, the figures for the inhibition in assay [5], in [6] and in assay [7] were 37%, less than 10% and 33%, respectively. Further, the IC50 is 0.47 µM in assay [2] and 0.027 µM in assay [11].
In assay [2], `COC(=O)c1c(N)ncnc1Nc1ccc(OCc2ccccc2)c(Cl)c1` registered an IC50 of 0.1 µM. The inhibition in [7] is 50%.
As for `CCN(CC)C(=O)c1c(N)ncnc1Nc1ccc(OCc2ccccc2)c(Cl)c1`, the IC50 in assay [1], in assay [2], in [3] and in assay [4] was greater than 100 µM each time.
Turning to `Nc1ncnc(Nc2ccc(OCc3ccccc3)c(Cl)c2)c1C(=O)NCCN1CCOCC1`, the IC50 in assay [1] is greater than 100 µM; in assay [2] it was 10 µM; in assay [3] it was greater than 100 µM; in assay [4], greater than 100 µM.
Regarding `COCCNC(=O)c1c(N)ncnc1Nc1ccc(OCc2ccccc2)c(Cl)c1`, the half-maximal inhibitory concentration (IC50) in assay [1], in assay [2], in assay [3] and in [4] was greater than 100 µM in each case.
In the case of `Nc1ncnc(Nc2ccc(OCc3ccccc3)c(Cl)c2)c1C(=O)OCc1cccc(F)c1`, the IC50 in assay [1], in assay [2], in assay [3] and in [4] was greater than 100 µM in each case.
With `Nc1ncnc(Nc2ccc(OCc3ccccc3)c(Cl)c2)c1C(=O)NNC(=O)CCN1CCOCC1`, the half-maximal inhibitory concentration (IC50) in [1], in [3] and in assay [4] was greater than 100 µM in each case.
As to `Nc1ncnc(Nc2ccc(OCc3ccccc3)c(Cl)c2)c1C(=O)OCCN1CCOCC1`, the inhibition in [5] is 11%; in assay [6] it was less than 10%; in assay [7], 55%. This compound also displayed a half-maximal inhibitory concentration (IC50) in assay [2] of 1.53 µM.
`Nc1ncnc(Nc2ccc(OCc3ccccc3)c(Cl)c2)c1C(=O)NCCN1CCCCC1`: the values for the IC50 in assay [1], in assay [3] and in [4] were greater than 100 µM, 100 µM and greater than 100 µM, respectively.
On to `Nc1ncnc(Nc2ccc(OCc3ccccc3)c(Cl)c2)c1C(=O)Nc1ccccc1`, for which the 50% inhibitory concentration (IC50) was greater than 100 µM in assay [1]; greater than 100 µM in assay [2]; greater than 100 µM in assay [3]; greater than 100 µM in [4]; 0.076 µM in [11].
